# What was measured:
# mOR-EG [1] = molecular target: T1, mOR-EG (Mus musculus, UniProt Q920P2); assay: cAMP ELISA in transfected HEK293T cells expressing mOR-EG; format: cell-based, murine; details: cells transfected with mOR-EG, Ric-8B and Gαolf; 300 μM
# T1 construct: expressed in transfected cells; host or cells: HEK293T
# T1 sequence (Q920P2 1-313): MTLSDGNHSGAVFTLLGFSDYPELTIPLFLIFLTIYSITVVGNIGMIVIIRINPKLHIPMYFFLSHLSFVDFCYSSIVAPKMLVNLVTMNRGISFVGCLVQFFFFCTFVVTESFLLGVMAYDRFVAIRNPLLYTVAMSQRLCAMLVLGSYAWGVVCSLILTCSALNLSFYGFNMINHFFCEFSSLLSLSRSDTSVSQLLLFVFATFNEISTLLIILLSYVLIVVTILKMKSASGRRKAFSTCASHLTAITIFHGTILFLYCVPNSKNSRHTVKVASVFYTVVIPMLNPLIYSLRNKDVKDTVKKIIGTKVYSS
# Experimental: (§1) These experiments were carried out in order to determine if Ric-8B amplifies signaling through odorant receptors (“ORs” hereafter). This was accomplished by using one of the murine ORs, i.e., first cloning murine OR-EG (“mOR-EG” hereafter), from murine genomic DNA via polymerase chain reaction (“PCR”), using standard method. Following this, receptor specificity was confirmed by functional expression of the rhodopsin tagged version of mOR-EG, in HEK293T cells. This is explained infra.
# (§2) HEK293T cells were plated, at 0.5×10^5 cells/well, of a 96 well plate. The cells were cultured using standard conditions, for 16-20 hours, after which they were transfected, via the well known, lipofectamine method with mOR-EG cDNA that had been subcloned into the XboI and KpnI restriction sites of plasmid pcDNA 3.1 (−), Gαolf whose full length cDNA had been cloned from murine olfactory epithelium, and subcloned into the XboI site of pcDNA 3.1 (−) expression vector, and Ric-8B, whose full length encoding cDNA had been prepared the same way and then cloned into pcDNA3 vector, with a flag epitope, at the BamHI site of pcDNA3 were used. 100 ngs of each cDNA construct were used for transfection. After 3 hours of transfection, serum containing medium was replaced by serum free medium, and the cells were incubated for 40 hours. Then, additional serum free medium containing 300 μM of eugenol was added, after which cells were incubated for 10 minutes. Activity was determined, by using a commercially available, cAMP ELISA kit.
# (§3) In these experiments, mOR-EG odorant specificity was tested, in cells which had also been transfected with Ric-8B and Gαolf Vanillin, nonenedoic acid, acetophenone, (−), limonene, heptanol, 2-heptanol, hexanol, and (+/−) cerveone were tested at high concentrations (300 μM).
# mOR-EG [2] = molecular target: T2, mOR-EG (Mus musculus, UniProt Q920P2); details: previously shown; cited from earlier work
# T2 construct: expressed in transfected cells; host or cells: HEK293T
# T2 sequence (Q920P2 with tags, fused parts or gaps): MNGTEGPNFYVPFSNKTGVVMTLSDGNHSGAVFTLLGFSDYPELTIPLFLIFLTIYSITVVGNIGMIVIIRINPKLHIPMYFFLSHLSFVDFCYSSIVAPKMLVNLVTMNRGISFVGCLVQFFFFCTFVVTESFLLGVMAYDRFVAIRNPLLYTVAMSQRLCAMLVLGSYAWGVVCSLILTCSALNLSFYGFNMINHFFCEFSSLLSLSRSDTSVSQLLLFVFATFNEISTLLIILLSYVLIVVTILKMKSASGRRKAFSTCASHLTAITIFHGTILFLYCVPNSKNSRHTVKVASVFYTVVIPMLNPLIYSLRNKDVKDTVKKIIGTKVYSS
# mOR-EG [3] = molecular target: T1, mOR-EG; assay: cAMP ELISA in transfected HEK293T cells expressing mOR-EG; format: cell-based, murine; details: HEK293T transfected with untagged mOR-EG and Gαolf; 300 μM, 10 minutes
# mOR-EG [4] = molecular target: T2, mOR-EG; assay: as above; format: cell-based, murine; details: HEK293T transfected with rhodopsin tagged mOR-EG, Gαolf (and Ric-8B); 300 μM, 10 minutes
# Experimental: as §1, §2, §3
# OR-17 = molecular target: T3, OR-17 (Mus musculus, UniProt Q9QWU6); details: GFP tagged mouse olfactory neurons endogenously expressing OR-17; cited from earlier work
# T3 construct: mouse olfactory neurons which endogenously express OR-17; host or cells: mouse olfactory neurons
# T3 sequence (Q9QWU6 1-327): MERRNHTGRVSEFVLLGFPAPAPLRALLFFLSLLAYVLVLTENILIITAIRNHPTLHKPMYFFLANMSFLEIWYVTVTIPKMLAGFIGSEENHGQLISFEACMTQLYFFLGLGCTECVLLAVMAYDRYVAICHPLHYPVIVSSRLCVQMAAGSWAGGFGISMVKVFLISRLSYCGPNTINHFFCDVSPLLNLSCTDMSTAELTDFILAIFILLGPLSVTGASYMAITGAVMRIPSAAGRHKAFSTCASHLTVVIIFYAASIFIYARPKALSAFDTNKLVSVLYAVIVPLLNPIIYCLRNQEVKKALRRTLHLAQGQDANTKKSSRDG
# murine form of OR-17 = molecular target: T4, murine form of OR-17 (Mus musculus, UniProt Q9QWU6); details: co-expression with Gα/16 in HEK293 cells; cited from earlier work
# T4 construct: host or cells: HEK293
# T4 sequence (Q9QWU6 1-327): T3 sequence (Q9QWU6 1-327)
# mOR-17 = molecular target: T5, mOR-17 (Mus musculus, UniProt Q9QWU6); assay: cAMP ELISA in transfected HEK293T cells expressing mOR-17; format: cell-based, murine
# T5 construct: expressed in transfected cells; host or cells: HEK293T
# T5 sequence (Q9QWU6 1-327): T3 sequence (Q9QWU6 1-327)
# Experimental: as §2
# To further this work, the same protocols as are described supra were carried out, using untagged mOR-17, Gαolf, Ric-8B, and RTP1.
# mOR-S6 [5] = assay: cAMP ELISA in transfected HEK293T cells expressing mOR-S6; format: cell-based, murine
# Experimental: as §2
# The same procedures set forth supra for isolating, cloning, and amplifying mOR-EG were used for the coding region of mOR-S6. Rhodopsin tagged mOR-S6 was also used. The same protocols were carried out as are discussed supra, using nonanedoic acid as the agonist.
# mOR-S6 [6] = details: murine olfactory neurons, single cell RT-PCR; cited from earlier work
# rat OR-17 = molecular target: T6, rat OR-17 (Rattus norvegicus, UniProt P23270); details: cited from earlier work
# T6 sequence (P23270 1-327): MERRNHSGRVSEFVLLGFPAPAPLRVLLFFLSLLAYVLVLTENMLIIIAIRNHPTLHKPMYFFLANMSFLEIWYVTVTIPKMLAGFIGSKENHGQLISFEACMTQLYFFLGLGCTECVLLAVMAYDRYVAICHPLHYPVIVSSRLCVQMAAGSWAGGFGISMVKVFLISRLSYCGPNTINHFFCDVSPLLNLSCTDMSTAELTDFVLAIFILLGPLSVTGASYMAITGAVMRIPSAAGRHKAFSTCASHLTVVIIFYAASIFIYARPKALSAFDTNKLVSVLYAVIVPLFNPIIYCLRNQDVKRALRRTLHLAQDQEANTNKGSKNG
structure (smiles),measurement,setting,value
"C=C(C)C1CC=C(C)C(=O)C1 (racemic) [(+/−) cerveone, cerveone]",stimulation of cAMP production (odorant specificity),mOR-EG [1],Only eugenol stimulated production of cAMP
CCCCCC(C)O (stereo not drawn) [2-heptanol],stimulation of cAMP production (odorant specificity),mOR-EG [1],Only eugenol stimulated production of cAMP
COc1cc(C=O)ccc1O [Vanillin],stimulation of rhodopsin tagged mOR-EG,mOR-EG [2],has been shown to stimulate
same,stimulation of cAMP production (odorant specificity),mOR-EG [1],Only eugenol stimulated production of cAMP
CC(=O)c1ccccc1 [acetophenone],stimulation of cAMP production (odorant specificity),mOR-EG [1],Only eugenol stimulated production of cAMP
C=CCc1ccc(O)c(OC)c1 [eugenol],response to the agonist (cAMP),mOR-EG [3],did not respond
same,stimulation of cAMP production (odorant specificity),mOR-EG [1],stimulated production of cAMP
same,increase in cAMP levels as compared to unstimulated cells (factor),mOR-EG [4],~3
CCCCCCC=O [heptanal],recognition of odorant by receptor,OR-17,recognized
same,recognition of odorant by receptor,murine form of OR-17,preferentially recognizes
same,response of transfected cells to odorant (cAMP),"mOR-17; all four elements: untagged mOR-17, Gαolf, Ric-8B and RTP1",responded to heptanal specifically
same,response of transfected cells to odorant (cAMP),"mOR-17; untagged mOR-17, Gαolf and RTP1 (RTP1 replaced Ric-8B)",did not
same,response of transfected cells to odorant (cAMP),"mOR-17; untagged mOR-17, Gαolf and Ric-8B",responded
CCCCCCCO [heptanol],stimulation of cAMP production (odorant specificity),mOR-EG [1],Only eugenol stimulated production of cAMP
CCCCCCO [hexanol],stimulation of cAMP production (odorant specificity),mOR-EG [1],Only eugenol stimulated production of cAMP
C=C(C)[C@H]1CC=C(C)CC1 [limonene],stimulation of cAMP production (odorant specificity),mOR-EG [1],Only eugenol stimulated production of cAMP
O=C(O)CCCCCCCC(=O)O [nonanedoic acid],increase in cAMP production,"mOR-S6 [5]; all four elements: rhodopsin tagged mOR-S6, Ric-8B, RTP1 and Gαolf",significant increase
same,increase in cAMP production,"mOR-S6 [5]; cells co-transfected with mOR-S6, Gαolf and Ric-8B",no significant increase
same,increase in cAMP production,mOR-S6 [5]; cells co-transfected with mOR-S6 and Gαolf,no significant increase
same,increase in cAMP production,"mOR-S6 [5]; mOR-S6, Gαolf and RTP1 (RTP1 replaced Ric-8B)","slight, insignificant increase"
same,increase in cAMP production,"mOR-S6 [5]; non-tagged mOR-S6 in parallel expression systems (Ric-8B, RTP1, Gαolf)",not observed
same,response of the OR to the odorant,mOR-S6 [6],responded
same,stimulation of cAMP production (odorant specificity),mOR-EG [1],Only eugenol stimulated production of cAMP
CCCCCCCCO [octanol],recognition of odorant by receptor,rat OR-17,recognizes

# — patent publication US20080305547A1, “Method for enhanced functional expression of cell receptors” (priority 2007, published 2008)
